According to ChEMBL document CHEMBL1148631, “Synthesis of cyclopentenyl carbocyclic nucleosides as potential antiviral agents against orthopoxviruses and SARS” (J Med Chem, 2006):

Columns and labels:
Yellow fever virus [1] = test: Selective index against Yellow fever virus; assay type: functional
Cowpox virus [2] = test: Antiviral activity against Cowpox virus; assay type: functional, organism-based
Vaccinia virus [3] = test: Antiviral activity against Vaccinia virus; assay type: functional, organism-based; conditions: Orthopoxvirus vaccinia
[4] = Cytotoxicity against Vaccinia virus; assay type: organism-based; conditions: Orthopoxvirus vaccinia
West Nile virus [5] = test: Cytotoxicity against West Nile virus; assay type: organism-based
SARS-CoV [6] = test: Selective index against SARS coronavirus; assay type: functional, Severe acute respiratory syndrome-related coronavirus
Vaccinia virus [7] = test: Selective index against Vaccinia virus; assay type: functional, Orthopoxvirus vaccinia
[8] = Cytotoxicity against Cowpox virus; assay type: organism-based
SARS-CoV [9] = test: Antiviral activity against SARS coronavirus; assay type: functional, organism-based; conditions: Severe acute respiratory syndrome-related coronavirus
Yellow fever virus [10] = test: Antiviral activity against Yellow fever virus; assay type: functional, organism-based
[11] = tested on: Venezuelan equine encephalitis virus; test: Antiviral activity against Venezuelan equine encephalitis virus; assay type: functional, organism-based
[12] = tested on: Venezuelan equine encephalitis virus; test: Cytotoxicity against Venezuelan equine encephalitis virus; assay type: organism-based
[13] = tested on: Venezuelan equine encephalitis virus; test: Selective index against Venezuelan equine encephalitis virus; assay type: functional
SARS-CoV [14] = test: Cytotoxicity against SARS coronavirus; assay type: organism-based; conditions: Severe acute respiratory syndrome-related coronavirus
Yellow fever virus [15] = test: Cytotoxicity against Yellow fever virus; assay type: organism-based
Cowpox virus [16] = test: Selective index against Cowpox virus; assay type: functional
West Nile virus [17] = test: Antiviral activity against West Nile virus; assay type: functional, organism-based

| SMILES | Selectivity index (Yellow fever virus [1]) | EC50 (Cowpox virus [2]) [µM] | EC50 (Vaccinia virus [3]) [µM] | IC50 [4] [µM] | IC50 (West Nile virus [5]) [µM] | Selectivity index (SARS-CoV [6]) | Selectivity index (Vaccinia virus [7]) | IC50 [8] [µM] | EC50 (SARS-CoV [9]) [µM] | EC50 (Yellow fever virus [10]) [µM] | EC50 [11] [µM] | IC50 [12] [µM] | Selectivity index [13] | IC50 (SARS-CoV [14]) [µM] | IC50 (Yellow fever virus [15]) [µM] | Selectivity index (Cowpox virus [16]) | EC50 (West Nile virus [17]) [µM] |
| --- | --- | --- | --- | --- | --- | --- | --- | --- | --- | --- | --- | --- | --- | --- | --- | --- | --- |
| NC(=O)c1cn([C@@H]2C=C(CO)[C@@H](O)[C@H]2O)nn1 | 0 | 39 | 0.4 | > 300 | > 100 | >2.1 | >750 | > 300 | 47 | > 100 | > 100 | > 100 | 0 | > 100 | > 100 | >7.7 | > 100 |
| NC(=O)c1ncn([C@@H]2C=C(CO)[C@@H](O)[C@H]2O)n1 | 0 | > 300 | > 300 | > 300 | > 100 | >4.8 | 0 | > 300 | 21 | > 100 | > 100 | > 100 | 0 | > 100 | > 100 | 0 | > 100 |
| NC(=O)c1cn([C@@H]2C=C(CO)[C@@H](O)[C@H]2O)cn1 | 0 | > 300 | > 300 | > 300 | > 100 | 0 | 0 | > 300 | > 100 | > 100 | > 100 | > 100 | 0 | > 100 | > 100 | 0 | > 100 |
| Nc1ccn(C[C@@H](CO)OCP(=O)(O)O)c(=O)n1 [CIDOFOVIR] | – | – | 6 | < 317 | – | – | – | > 317 | – | – | – | – | – | – | – | – | – |
